Measurements as given in ChEMBL document CHEMBL1146892, “Pyrrolidine bis-cyclic guanidines with antimicrobial activity against drug-resistant Gram-positive pathogens identified from a mixture-based combinatorial library” (2006).
In brackets after ≈: the same amount, converted by molar mass.

Assays:
Format in all cases: functional
Staphylococcus aureus = test: Antibacterial activity against methicillin-resistant Staphylococcus aureus ATCC 33591
Escherichia coli = test: Antibacterial activity against Escherichia coli ATCC 25922
Enterococcus faecalis = test: Antibacterial activity against vancomycin-resistant Enterococcus faecalis ATCC 51299

Row | Compound | MBC (Staphylococcus aureus) [µg/mL] | MIC (Staphylococcus aureus) [µg/mL] | MBC (Escherichia coli) [µg/mL] | MIC (Escherichia coli) [µg/mL] | MBC (Enterococcus faecalis) [µg/mL] | MIC (Enterococcus faecalis) [µg/mL]
1 | CC(C)Cc1ccc(C(C)CN2C(=N)N([C@@H](CC3CCCCC3)CN3CCCC3CN3C(N)=NC[C@@H]3C)C[C@@H]2CC2CCCCC2)cc1 (stereo partly specified) | 2.5 (≈ 3.79 µM) | < 2.5 | 5 (≈ 7.58 µM) | 5 (≈ 7.58 µM) | > 10 | < 2.5
2 | CCCC[C@@H]1CN([C@@H](CC2CCCCC2)CN2CCCC2CN2C(N)=NC[C@@H]2C)C(=N)N1CC(C)c1ccc(CC(C)C)cc1 (stereo partly specified) | 2.5 (≈ 4.03 µM) | 2.5 (≈ 4.03 µM) | > 10 | > 10 | > 10 | < 2.5
3 | CCCC[C@@H]1CN([C@@H](CC2CCCCC2)CN2CCCC2CN2C(N)=NC[C@@H]2Cc2ccccc2)C(=N)N1CCc1cc(C(F)(F)F)cc(C(F)(F)F)c1 (stereo partly specified) | < 2.5 | < 2.5 | > 10 | > 10 | < 2.5 | < 2.5
4 | CCCC[C@@H]1CN([C@H](Cc2ccc3ccccc3c2)CN2CCCC2CN2C(N)=NC[C@@H]2Cc2ccccc2)C(=N)N1CCc1cc(C(F)(F)F)cc(C(F)(F)F)c1 (stereo partly specified) | < 2.5 | < 2.5 | > 10 | > 10 | > 10 | < 2.5
5 | CC(C)Cc1ccc(C(C)CN2C(=N)N([C@H](Cc3ccc4ccccc4c3)CN3CCCC3CN3C(N)=NC[C@@H]3C)C[C@@H]2CC2CCCCC2)cc1 (stereo partly specified) | 2.5 (≈ 3.55 µM) | 2.5 (≈ 3.55 µM) | > 10 | > 10 | 2.5 (≈ 3.55 µM) | > 10
6 | C[C@H]1CN=C(N)N1CC1CCCN1C[C@@H](Cc1ccc2ccccc2c1)N1C[C@@H](CC2CCCCC2)N(CCc2cc(C(F)(F)F)cc(C(F)(F)F)c2)C1=N (stereo partly specified) | < 2.5 | < 2.5 | > 10 | > 10 | < 2.5 | < 2.5
7 | C[C@H]1CN=C(N)N1CC1CCCN1C[C@@H](CC1CCCCC1)N1C[C@H](CC2CCCCC2)N(CCc2cc(C(F)(F)F)cc(C(F)(F)F)c2)C1=N (stereo partly specified) | 2.5 (≈ 3.44 µM) | < 2.5 | 5 (≈ 6.89 µM) | 5 (≈ 6.89 µM) | 2.5 (≈ 3.44 µM) | < 2.5
8 | C[C@H]1CN=C(N)N1CC1CCCN1C[C@@H](CC1CCCCC1)N1C[C@@H](CC2CCCCC2)N(CCc2cc(C(F)(F)F)cc(C(F)(F)F)c2)C1=N (stereo partly specified) | 2.5 (≈ 3.44 µM) | < 2.5 | 5 (≈ 6.89 µM) | 5 (≈ 6.89 µM) | > 10 | < 2.5
9 | C[C@H]1CN=C(N)N1CC1CCCN1C[C@H](CC1CCCCC1)N1C[C@H](CC2CCCCC2)N(CCc2cc(C(F)(F)F)cc(C(F)(F)F)c2)C1=N (stereo partly specified) | < 2.5 | < 2.5 | > 10 | > 10 | > 10 | < 2.5
10 | CC(C)Cc1ccc(C(C)CN2C(=N)N([C@@H](CC3CCCCC3)CN3CCCC3CN3C(N)=NC[C@@H]3C)C[C@H]2CC2CCCCC2)cc1 (stereo partly specified) | < 2.5 | < 2.5 | > 10 | > 10 | > 10 | < 2.5
11 | N=C1N(CCc2cc(C(F)(F)F)cc(C(F)(F)F)c2)[C@@H](CC2CCCCC2)CN1[C@H](Cc1ccc2ccccc2c1)CN1CCCC1CN1C(N)=NC[C@@H]1Cc1ccccc1 (stereo partly specified) | < 2.5 | < 2.5 | > 10 | > 10 | < 2.5 | < 2.5
